According to patent publication US20080071331A1, “Photodynamic Therapy For The Treatment Of Prostatic Conditions” (QLT Inc., priority 2004, published 2008):

Tested on: prostate
Assay: Photodynamic therapy of the dog prostate after direct intraprostatic injection of lemuteporfin and transurethral 690 nm light
Format: in vivo
Conditions: mature intact mixed-breed dogs
Description: Eight mature, intact, mixed-breed dogs are premedicated with butorphanol (0.4 mg per kilogram of body weight), acepromazine (0.1 mg/kg), and atropine (0.4 mg/kg), all given by intramuscular injection. Anesthesia is induced with intravenous thiopental sodium (8 mg per 0.4536 kilograms of body weight) and maintained with inhaled isoflurane and oxygen (dosage as required for anesthetic effect). Lemuteporfin for injection (A-EA6 in U.S. Pat. No. 5,929,105) is reconstituted with Water for Injection to give a stock concentration of 2.0 mg/ml and diluted with 5% Dextrose in water to a concentration 0.2 mg/ml. A standard cystoscope is inserted into the urethra. Injections of the drug are then delivered to the prostate using a commercially available transurethral injection device (InjecTx™, San Jose, Calif., USA) which is compatible with the cystoscope. Two injections of 0.5 ml are given to each left lobe of the prostate and 2 injections of 1.0 ml are given to each right lobe of the prostate. The transurethral injection device is then removed and a guidewire is inserted through the working channel of the cystoscope. The activation-energy delivery device comprises: a cylindrical fibre optic with a 200 μm diameter core, a 25 mm long diffuser, and a power rating of 175 mW/cm (maximum power load, 437.5 mW); a reflective-cap fibre-centering balloon catheter with a 20 mm treatment window supplied with a guidewire for positioning the device in the urethra; and a 3 W 690 nm red-light diode laser (AOC, South Plainfield, N.J., USA). The catheter is inserted and positioned using the guidewire which is fed through an internal channel of the catheter. Once the catheter is in position the balloon is inflated to secure it in place. The guidewire is removed from the catheter and the fiber optic diffuser is inserted into the catheter and secured in place. The treatment assembly is positioned in the urethra using ultrasonic guidance. Ultrasound is also used to position the needles for four percutaneous intraprostatic injections (two per lobe separated by longitudinally by 1 cm). […]

[1] = 0.2 mg/ml intraprostatic injections, 690 nm light 25, 50 or 100 J/cm^2, after seven days

- Bowel, bladder, and prostate sizes [1]: within normal ranges
SMILES: C=Cc1c(C)c2cc3nc(cc4[nH]c(cc5nc(cc1[nH]2)C(C)=C5CCC(=O)OCCO)c(CCC(=O)OCCO)c4C)[C@@]1(C)C3=CC=C(C(=O)OC)[C@H]1C(=O)OC [Lemuteporfin, lemuteporfin]
- PDT-associated damage in the urethra [1]: no significant PDT-associated damage
- PDT-associated tissue damage in the target tissue (prostates) (0.2 mg/ml, 2 x 0.5 ml left lobe, 2 x 1.0 ml right lobe, 690 nm light 25, 50 or 100 J/cm^2 15 minutes after last injection, prostates harvested after seven days): evidence of PDT-associated tissue damage in the target tissue
